Data: ChEMBL document CHEMBL3991601, “The target landscape of clinical kinase drugs” (Science, 2017)
Activity calls are given as the source filed them.

How the values were obtained:
[1] = target: Dual specificity protein kinase CLK3 (Homo sapiens, UniProt P49761); format: subcellular, K-562, COLO 205, SK-N-BE(2) and MV-4-11, Cell lysate; details: read-out: Kd apparent
[2] = target: Cell division cycle 7-related protein kinase (Homo sapiens, UniProt O00311)
Ephrin type-A receptor 7 = Ephrin type-A receptor 7 (Homo sapiens, UniProt Q15375)
[3] = target: T1, Inhibitor of nuclear factor kappa-B kinase subunit epsilon (Homo sapiens, UniProt Q14164)
T1 sequence (Q14164 whole entry): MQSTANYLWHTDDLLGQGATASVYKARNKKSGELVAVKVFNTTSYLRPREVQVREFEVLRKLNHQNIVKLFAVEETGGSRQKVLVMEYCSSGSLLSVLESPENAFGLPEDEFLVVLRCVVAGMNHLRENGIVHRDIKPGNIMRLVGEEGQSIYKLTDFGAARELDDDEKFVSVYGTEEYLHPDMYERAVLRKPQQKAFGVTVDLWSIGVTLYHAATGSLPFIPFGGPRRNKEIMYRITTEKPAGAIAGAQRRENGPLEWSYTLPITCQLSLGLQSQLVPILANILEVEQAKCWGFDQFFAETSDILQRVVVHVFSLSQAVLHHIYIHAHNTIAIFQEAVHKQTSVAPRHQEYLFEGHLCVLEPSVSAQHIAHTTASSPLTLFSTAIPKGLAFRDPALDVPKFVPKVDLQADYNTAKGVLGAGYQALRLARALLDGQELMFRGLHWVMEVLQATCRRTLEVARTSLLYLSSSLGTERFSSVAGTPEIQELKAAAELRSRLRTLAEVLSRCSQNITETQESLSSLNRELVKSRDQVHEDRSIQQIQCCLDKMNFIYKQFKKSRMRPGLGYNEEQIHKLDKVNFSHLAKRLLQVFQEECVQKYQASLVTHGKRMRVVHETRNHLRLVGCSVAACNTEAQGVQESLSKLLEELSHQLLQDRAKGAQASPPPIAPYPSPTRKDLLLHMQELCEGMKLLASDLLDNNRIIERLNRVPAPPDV

[4] = target: Hepatocyte growth factor receptor (Homo sapiens, UniProt P08581)
[5] = target: Membrane-associated progesterone receptor component 1 (Homo sapiens, UniProt O00264)
[6] = target: Serine/threonine-protein kinase pim-2 (Homo sapiens, UniProt Q9P1W9)
UMP-CMP kinase = target: T2, UMP-CMP kinase (Homo sapiens, UniProt P30085)
T2 sequence (P30085 whole entry): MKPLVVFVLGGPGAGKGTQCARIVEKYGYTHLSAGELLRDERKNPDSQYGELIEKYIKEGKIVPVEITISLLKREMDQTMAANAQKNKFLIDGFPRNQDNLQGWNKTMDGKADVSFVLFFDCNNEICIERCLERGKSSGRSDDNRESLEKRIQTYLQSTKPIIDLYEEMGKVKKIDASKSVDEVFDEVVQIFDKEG

Ephrin type-A receptor 1 = target: T3, Ephrin type-A receptor 1 (Homo sapiens, UniProt P21709)
T3 sequence (P21709 whole entry): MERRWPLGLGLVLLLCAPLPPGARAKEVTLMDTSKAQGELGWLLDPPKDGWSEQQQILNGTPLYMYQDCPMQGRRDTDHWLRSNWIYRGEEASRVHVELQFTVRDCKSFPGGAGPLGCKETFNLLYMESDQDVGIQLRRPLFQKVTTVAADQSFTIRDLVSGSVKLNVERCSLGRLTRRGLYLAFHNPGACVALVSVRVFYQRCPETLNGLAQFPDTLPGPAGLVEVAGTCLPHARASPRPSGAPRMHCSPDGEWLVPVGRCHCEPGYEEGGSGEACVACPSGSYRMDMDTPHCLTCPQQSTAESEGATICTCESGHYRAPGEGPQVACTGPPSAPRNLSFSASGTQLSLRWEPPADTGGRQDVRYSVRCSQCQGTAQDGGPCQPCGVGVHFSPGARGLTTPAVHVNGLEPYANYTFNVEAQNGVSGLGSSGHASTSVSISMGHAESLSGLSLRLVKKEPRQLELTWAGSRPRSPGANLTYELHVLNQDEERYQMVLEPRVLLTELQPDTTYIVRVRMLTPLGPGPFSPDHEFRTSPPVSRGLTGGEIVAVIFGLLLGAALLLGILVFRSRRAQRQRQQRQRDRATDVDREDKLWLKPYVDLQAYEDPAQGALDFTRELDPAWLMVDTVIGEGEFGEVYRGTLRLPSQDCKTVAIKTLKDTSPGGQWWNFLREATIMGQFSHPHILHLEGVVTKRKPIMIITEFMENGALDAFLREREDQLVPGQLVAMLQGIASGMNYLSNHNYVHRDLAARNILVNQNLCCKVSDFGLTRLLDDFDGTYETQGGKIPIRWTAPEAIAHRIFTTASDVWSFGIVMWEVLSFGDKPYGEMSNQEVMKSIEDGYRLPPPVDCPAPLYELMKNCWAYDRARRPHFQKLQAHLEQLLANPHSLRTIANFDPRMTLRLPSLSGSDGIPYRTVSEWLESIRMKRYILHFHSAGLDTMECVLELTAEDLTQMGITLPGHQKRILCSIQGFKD

[7] = target: High affinity nerve growth factor receptor (Homo sapiens, UniProt P04629)
[8] = target: Serine/threonine-protein kinase PAK 6 (Homo sapiens, UniProt Q9NQU5)
[9] = target: Dual specificity testis-specific protein kinase 1 (Homo sapiens, UniProt Q15569)
[10] = target: Serine/threonine-protein kinase 38-like (Homo sapiens, UniProt Q9Y2H1)
Also: in the data inactive means no Kd found up to 30 µM.

Chain of Membrane-associated progesterone receptor component 1 (O00264 whole entry): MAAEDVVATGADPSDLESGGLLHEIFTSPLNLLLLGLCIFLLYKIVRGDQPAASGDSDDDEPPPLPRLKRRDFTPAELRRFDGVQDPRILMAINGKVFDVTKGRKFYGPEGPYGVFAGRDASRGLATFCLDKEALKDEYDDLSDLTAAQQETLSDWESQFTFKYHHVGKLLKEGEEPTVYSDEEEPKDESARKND
Chain of Ephrin type-A receptor 7 (Q15375 whole entry): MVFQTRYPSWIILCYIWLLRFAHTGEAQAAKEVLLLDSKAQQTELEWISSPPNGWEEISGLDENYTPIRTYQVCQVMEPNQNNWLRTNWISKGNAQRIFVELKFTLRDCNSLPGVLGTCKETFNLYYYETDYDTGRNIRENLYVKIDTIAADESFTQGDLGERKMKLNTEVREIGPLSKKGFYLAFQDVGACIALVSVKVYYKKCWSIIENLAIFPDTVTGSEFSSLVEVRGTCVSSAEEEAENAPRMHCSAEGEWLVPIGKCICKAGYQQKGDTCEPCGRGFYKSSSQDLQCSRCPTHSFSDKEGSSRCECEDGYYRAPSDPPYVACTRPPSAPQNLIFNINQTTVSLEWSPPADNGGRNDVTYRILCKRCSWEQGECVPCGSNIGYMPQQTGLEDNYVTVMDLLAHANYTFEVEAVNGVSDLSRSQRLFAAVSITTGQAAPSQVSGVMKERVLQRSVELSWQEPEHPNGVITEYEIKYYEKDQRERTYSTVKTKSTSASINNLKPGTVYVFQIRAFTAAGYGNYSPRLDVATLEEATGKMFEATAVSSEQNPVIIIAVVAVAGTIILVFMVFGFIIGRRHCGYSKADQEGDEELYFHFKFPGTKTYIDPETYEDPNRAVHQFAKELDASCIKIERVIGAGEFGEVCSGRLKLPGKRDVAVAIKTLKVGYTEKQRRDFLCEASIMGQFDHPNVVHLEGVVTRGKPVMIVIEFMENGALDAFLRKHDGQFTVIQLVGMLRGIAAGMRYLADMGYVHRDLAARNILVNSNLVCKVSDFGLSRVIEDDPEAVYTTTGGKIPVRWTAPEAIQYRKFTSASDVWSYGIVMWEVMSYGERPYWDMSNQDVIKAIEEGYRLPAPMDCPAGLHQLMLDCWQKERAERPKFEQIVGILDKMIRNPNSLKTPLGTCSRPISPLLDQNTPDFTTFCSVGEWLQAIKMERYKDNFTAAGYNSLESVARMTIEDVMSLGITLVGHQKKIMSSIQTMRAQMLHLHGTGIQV
Chain of Serine/threonine-protein kinase PAK 6 (Q9NQU5 whole entry): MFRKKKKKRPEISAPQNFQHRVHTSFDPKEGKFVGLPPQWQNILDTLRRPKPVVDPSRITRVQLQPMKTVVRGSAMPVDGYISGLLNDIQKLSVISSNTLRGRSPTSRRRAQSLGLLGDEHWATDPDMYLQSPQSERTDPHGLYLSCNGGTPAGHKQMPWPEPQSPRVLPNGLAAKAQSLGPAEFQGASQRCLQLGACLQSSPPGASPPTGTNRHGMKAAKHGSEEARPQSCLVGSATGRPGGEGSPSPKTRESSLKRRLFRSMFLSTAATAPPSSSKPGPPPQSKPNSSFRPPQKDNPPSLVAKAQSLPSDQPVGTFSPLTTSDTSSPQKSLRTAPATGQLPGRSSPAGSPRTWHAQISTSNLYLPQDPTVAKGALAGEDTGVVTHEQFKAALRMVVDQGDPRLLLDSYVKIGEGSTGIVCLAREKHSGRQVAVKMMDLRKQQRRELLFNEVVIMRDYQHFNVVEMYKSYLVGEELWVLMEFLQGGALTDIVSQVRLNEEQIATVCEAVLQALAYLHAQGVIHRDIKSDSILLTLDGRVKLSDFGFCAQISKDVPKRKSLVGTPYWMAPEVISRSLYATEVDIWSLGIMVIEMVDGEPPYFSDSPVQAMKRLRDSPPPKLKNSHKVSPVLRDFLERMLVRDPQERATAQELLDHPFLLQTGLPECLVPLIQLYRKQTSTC
Chain of Dual specificity testis-specific protein kinase 1 (Q15569 whole entry): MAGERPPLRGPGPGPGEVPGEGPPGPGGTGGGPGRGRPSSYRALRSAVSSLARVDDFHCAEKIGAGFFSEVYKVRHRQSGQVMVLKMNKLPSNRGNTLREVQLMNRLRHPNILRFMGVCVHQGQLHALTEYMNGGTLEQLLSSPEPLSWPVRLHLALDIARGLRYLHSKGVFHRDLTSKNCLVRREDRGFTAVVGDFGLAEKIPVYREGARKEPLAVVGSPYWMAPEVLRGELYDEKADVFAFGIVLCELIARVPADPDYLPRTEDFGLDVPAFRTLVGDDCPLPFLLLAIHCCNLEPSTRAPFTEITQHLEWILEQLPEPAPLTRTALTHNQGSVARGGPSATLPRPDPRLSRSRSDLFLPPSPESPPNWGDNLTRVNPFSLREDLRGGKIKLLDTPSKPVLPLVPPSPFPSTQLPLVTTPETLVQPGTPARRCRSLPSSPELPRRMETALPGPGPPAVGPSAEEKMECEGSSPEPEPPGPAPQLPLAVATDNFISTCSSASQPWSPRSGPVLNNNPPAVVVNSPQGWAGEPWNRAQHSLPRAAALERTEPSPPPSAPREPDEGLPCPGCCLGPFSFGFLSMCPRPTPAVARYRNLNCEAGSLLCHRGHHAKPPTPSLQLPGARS
Chain of Serine/threonine-protein kinase 38-like (Q9Y2H1 whole entry): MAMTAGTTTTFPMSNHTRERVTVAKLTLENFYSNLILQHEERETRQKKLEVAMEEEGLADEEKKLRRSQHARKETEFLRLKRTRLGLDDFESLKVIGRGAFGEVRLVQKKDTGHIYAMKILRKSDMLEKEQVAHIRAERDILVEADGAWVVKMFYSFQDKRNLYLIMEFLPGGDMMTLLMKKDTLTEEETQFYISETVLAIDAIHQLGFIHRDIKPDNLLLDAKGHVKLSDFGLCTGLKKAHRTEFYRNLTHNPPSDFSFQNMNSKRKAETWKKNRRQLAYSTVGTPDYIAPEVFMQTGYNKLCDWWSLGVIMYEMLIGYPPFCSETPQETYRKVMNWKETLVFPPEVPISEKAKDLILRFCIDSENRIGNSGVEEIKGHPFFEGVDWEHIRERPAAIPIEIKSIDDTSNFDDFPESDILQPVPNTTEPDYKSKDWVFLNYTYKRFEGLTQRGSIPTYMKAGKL
Chain of Serine/threonine-protein kinase pim-2 (Q9P1W9 whole entry): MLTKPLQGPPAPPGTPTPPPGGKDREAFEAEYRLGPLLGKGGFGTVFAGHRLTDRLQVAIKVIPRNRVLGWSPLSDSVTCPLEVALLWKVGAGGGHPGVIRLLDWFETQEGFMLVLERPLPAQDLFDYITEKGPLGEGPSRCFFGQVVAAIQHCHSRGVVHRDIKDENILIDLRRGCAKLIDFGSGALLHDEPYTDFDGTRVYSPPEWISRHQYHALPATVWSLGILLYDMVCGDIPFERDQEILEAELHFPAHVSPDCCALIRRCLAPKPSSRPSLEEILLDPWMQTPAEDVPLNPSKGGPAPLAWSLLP
Chain of Hepatocyte growth factor receptor (P08581 whole entry): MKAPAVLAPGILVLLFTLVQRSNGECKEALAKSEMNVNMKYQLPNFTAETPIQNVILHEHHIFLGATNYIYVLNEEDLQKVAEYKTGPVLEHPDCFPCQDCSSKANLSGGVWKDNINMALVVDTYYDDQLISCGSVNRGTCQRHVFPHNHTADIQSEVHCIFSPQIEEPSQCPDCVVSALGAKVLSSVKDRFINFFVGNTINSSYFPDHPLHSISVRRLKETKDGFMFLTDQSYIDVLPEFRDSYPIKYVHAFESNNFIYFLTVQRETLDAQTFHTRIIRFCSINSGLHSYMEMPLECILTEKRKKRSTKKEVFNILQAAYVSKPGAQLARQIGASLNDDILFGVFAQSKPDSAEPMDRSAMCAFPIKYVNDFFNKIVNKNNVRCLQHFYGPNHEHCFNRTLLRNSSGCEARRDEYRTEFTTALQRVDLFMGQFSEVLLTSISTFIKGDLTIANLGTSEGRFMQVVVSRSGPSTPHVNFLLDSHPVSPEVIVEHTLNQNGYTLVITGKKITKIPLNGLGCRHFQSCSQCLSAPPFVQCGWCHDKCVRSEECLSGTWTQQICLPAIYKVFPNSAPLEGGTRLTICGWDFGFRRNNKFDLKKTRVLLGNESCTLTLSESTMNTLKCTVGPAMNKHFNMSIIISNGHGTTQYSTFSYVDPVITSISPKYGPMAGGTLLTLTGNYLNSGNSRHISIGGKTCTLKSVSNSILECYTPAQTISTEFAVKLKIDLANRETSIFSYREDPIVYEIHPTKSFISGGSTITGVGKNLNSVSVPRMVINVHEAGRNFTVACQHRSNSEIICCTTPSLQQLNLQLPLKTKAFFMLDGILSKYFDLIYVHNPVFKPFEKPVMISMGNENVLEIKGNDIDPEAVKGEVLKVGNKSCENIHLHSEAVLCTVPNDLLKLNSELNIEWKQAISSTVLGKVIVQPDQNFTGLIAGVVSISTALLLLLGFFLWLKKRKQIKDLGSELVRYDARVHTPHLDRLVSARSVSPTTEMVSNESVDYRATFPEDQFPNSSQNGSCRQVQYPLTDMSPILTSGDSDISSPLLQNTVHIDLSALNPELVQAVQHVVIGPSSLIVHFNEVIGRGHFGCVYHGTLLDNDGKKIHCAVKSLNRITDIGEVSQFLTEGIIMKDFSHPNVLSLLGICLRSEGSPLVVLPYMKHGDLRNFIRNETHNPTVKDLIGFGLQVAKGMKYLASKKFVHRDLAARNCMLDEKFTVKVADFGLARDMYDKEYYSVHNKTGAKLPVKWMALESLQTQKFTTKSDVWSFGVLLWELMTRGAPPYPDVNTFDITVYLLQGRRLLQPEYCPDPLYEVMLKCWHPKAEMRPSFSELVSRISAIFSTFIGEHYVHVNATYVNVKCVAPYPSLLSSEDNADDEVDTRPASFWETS

Row | SMILES | Kd [1] | Kd [2] | Kd (Ephrin type-A receptor 7) | Kd [3] | Kd [4] | Kd [5] | Kd [6] | Kd (UMP-CMP kinase) | Kd (Ephrin type-A receptor 1) | Kd [7] | Kd [8] | Kd [9] | Kd [10]
1 | CNS(=O)(=O)Nc1nccc(Cc2c(C)c3ccc(Oc4ncccn4)cc3oc2=O)c1F [AVUTOMETINIB] | > 30 µM (inactive) | > 30 µM (inactive) | > 30 µM (inactive) | > 30 µM (inactive) | > 30 µM (inactive) | > 30 µM (inactive) | > 30 µM (inactive) | – | – | – | – | – | –
2 | COc1cc(CCc2cc(NC(=O)c3ccc(N4C[C@@H](C)N[C@@H](C)C4)cc3)n[nH]2)cc(OC)c1 [AZD-4547] | > 30 µM (inactive) | > 30 µM (inactive) | > 30 µM (inactive) | > 30 µM (inactive) | > 30 µM (inactive) | > 30 µM (inactive) | > 30 µM (inactive) | > 30 µM (inactive) | > 30 µM (inactive) | 2.25 µM | > 30 µM (inactive) | > 30 µM (inactive) | –
3 | COC(=O)N[C@@H](C)CNc1nccc(-c2cn(C(C)C)nc2-c2cc(Cl)cc(NS(C)(=O)=O)c2F)n1 [ENCORAFENIB] | > 30 µM (inactive) | > 30 µM (inactive) | > 30 µM (inactive) | > 30 µM (inactive) | > 30 µM (inactive) | 0.204 µM | – | > 30 µM (inactive) | > 30 µM (inactive) | > 30 µM (inactive) | – | – | –
4 | Cc1cc(Nc2cc(N3CCN(C)CC3)nc(/C=C/c3ccccc3)n2)n[nH]1 [ENMD-2076] | > 30 µM (inactive) | – | – | – | – | > 30 µM (inactive) | – | > 30 µM (inactive) | – | – | > 30 µM (inactive) | > 30 µM (inactive) | –
5 | CO[C@H]1C[C@@H]2CC[C@@H](C)[C@@](O)(O2)C(=O)C(=O)N2CCCC[C@H]2C(=O)O[C@H]([C@H](C)C[C@@H]2CC[C@@H](OCCO)[C@H](OC)C2)CC(=O)[C@H](C)/C=C(\C)[C@@H](O)[C@@H](OC)C(=O)[C@H](C)C[C@H](C)/C=C/C=C/C=C/1C [EVEROLIMUS] | > 30 µM (inactive) | > 30 µM (inactive) | > 30 µM (inactive) | > 30 µM (inactive) | > 30 µM (inactive) | – | – | > 30 µM (inactive) | > 30 µM (inactive) | > 30 µM (inactive) | – | > 30 µM (inactive) | –
6 | COCCNCc1ccc(-c2cc3nccc(Oc4ccc(NC(=S)NC(=O)Cc5ccc(F)cc5)cc4F)c3s2)nc1 [GLESATINIB] | > 30 µM (inactive) | > 30 µM (inactive) | – | > 30 µM (inactive) | – | > 30 µM (inactive) | > 30 µM (inactive) | > 30 µM (inactive) | > 30 µM (inactive) | > 30 µM (inactive) | > 30 µM (inactive) | > 30 µM (inactive) | –
7 | Cn1cc(-c2ccc3nnc(C(F)(F)c4ccc5ncccc5c4)n3n2)cn1 [JNJ-38877605] | > 30 µM (inactive) | > 30 µM (inactive) | > 30 µM (inactive) | > 30 µM (inactive) | 0.002 µM (active) | > 30 µM (inactive) | > 30 µM (inactive) | – | > 30 µM (inactive) | > 30 µM (inactive) | > 30 µM (inactive) | > 30 µM (inactive) | –
8 | COc1cc2nccc(Oc3ccc(NC(=O)NC4CC4)c(Cl)c3)c2cc1C(N)=O [LENVATINIB] | > 30 µM (inactive) | – | – | > 30 µM (inactive) | > 30 µM (inactive) | > 30 µM (inactive) | – | > 30 µM (inactive) | > 30 µM (inactive) | – | – | > 30 µM (inactive) | > 30 µM (inactive)
9 | O=C(O)[C@]1(Cc2cccc(Nc3nccs3)n2)CC[C@@H](Oc2cccc(Cl)c2F)CC1 [MK-5108] | > 30 µM (inactive) | > 30 µM (inactive) | > 30 µM (inactive) | > 30 µM (inactive) | > 30 µM (inactive) | > 30 µM (inactive) | > 30 µM (inactive) | > 30 µM (inactive) | – | > 30 µM (inactive) | > 30 µM (inactive) | > 30 µM (inactive) | –
10 | C=CC(=O)N1CCC(Oc2cc3c(Nc4ccc(Cl)c(Cl)c4F)ncnc3cc2OC)CC1 [POZIOTINIB] | > 30 µM (inactive) | – | > 30 µM (inactive) | > 30 µM (inactive) | 0.794 µM | – | – | – | – | > 30 µM (inactive) | > 30 µM (inactive) | > 30 µM (inactive) | > 30 µM (inactive)
11 | CNC(=O)c1cc(Oc2ccc(NC(=O)Nc3ccc(Cl)c(C(F)(F)F)c3)c(F)c2)ccn1 [REGORAFENIB] | > 30 µM (inactive) | – | – | > 30 µM (inactive) | > 30 µM (inactive) | > 30 µM (inactive) | > 30 µM (inactive) | > 30 µM (inactive) | 0.007 µM | > 30 µM (inactive) | – | – | –
12 | COc1cc(OC)c(/C=C/S(=O)(=O)Cc2ccc(OC)c(NCC(=O)O)c2)c(OC)c1 [RIGOSERTIB] | 0.04 µM | > 30 µM (inactive) | > 30 µM (inactive) | > 30 µM (inactive) | 0.94 µM (active) | – | > 30 µM (inactive) | – | > 30 µM (inactive) | > 30 µM (inactive) | > 30 µM (inactive) | > 30 µM (inactive) | –
13 | CN1CCC(COc2cnc(-c3cccc(Cn4nc(-c5cccc(C#N)c5)ccc4=O)c3)nc2)CC1 [TEPOTINIB] | > 30 µM (inactive) | – | > 30 µM (inactive) | > 30 µM (inactive) | – | > 30 µM (inactive) | – | > 30 µM (inactive) | > 30 µM (inactive) | > 30 µM (inactive) | > 30 µM (inactive) | > 30 µM (inactive) | > 30 µM (inactive)
14 | CC(=O)Nc1cccc(-n2c(=O)n(C3CC3)c(=O)c3c(Nc4ccc(I)cc4F)n(C)c(=O)c(C)c32)c1 [TRAMETINIB] | > 30 µM (inactive) | > 30 µM (inactive) | > 30 µM (inactive) | > 30 µM (inactive) | > 30 µM (inactive) | > 30 µM (inactive) | > 30 µM (inactive) | > 30 µM (inactive) | > 30 µM (inactive) | > 30 µM (inactive) | > 30 µM (inactive) | > 30 µM (inactive) | –
15 | CC[C@@H]1C(=O)N(C)c2cnc(Nc3ccc(C(=O)N[C@H]4CC[C@H](N5CCN(CC6CC6)CC5)CC4)cc3OC)nc2N1C(C)C [VOLASERTIB] | > 30 µM (inactive) | – | > 30 µM (inactive) | > 30 µM (inactive) | > 30 µM (inactive) | > 30 µM (inactive) | – | > 30 µM (inactive) | > 30 µM (inactive) | > 30 µM (inactive) | – | > 30 µM (inactive) | > 30 µM (inactive)
16 | O=C(Nc1ccc(-c2ccnc(Nc3ccc(N4CCOCC4)cc3)n2)cc1)C1CCCN1 (centres undefined) [XL-019] | > 30 µM (inactive) | > 30 µM (inactive) | > 30 µM (inactive) | 0.342 µM (active) | > 30 µM (inactive) | – | – | – | > 30 µM (inactive) | > 30 µM (inactive) | > 30 µM (inactive) | > 30 µM (inactive) | –
